# Reference: patent US5712282A, “Method for therapeutically treating tardive dyskinesia and uses thereof” (Iyo; Masaomi, priority 1994, dated 1998)
# Experiments:
# SD-strain rats [1] = assay: Test Example 1: tardive dyskinesia induced by haloperidol (1.5 mg/kg i.p. daily, 3 weeks) in rats; type: in vivo, SD-strain rats (male); settings: for Number of the tongue protrusions / Number of the chewings: 15 min observation from 3 min after dosing, Mean±SE; for Number of the tongue protrusions: control 7.7 ± 2.1; for Number of the chewings: control 111.2 ± 27.8
# Experimental: After lapse of 96 hours from the completion of the last administration of haloperidol, the number of the vacuous chewing movements of the mouth and the number of abnormal tongue-protruding movements of the rats were counted as the parameters indicative of tardive dyskinesia.
# cAMP in the brain = settings: rats; animal tests, J. Med. Chem. 34(1), 291-293 (1991); cited from earlier work
# acute toxicity in rats = settings: rat, in vivo
# SD-strain rats [2] = assay: Test Example 2: oral dyskinesia induced by haloperidol decanoate (25 mg/kg i.m. every 4 weeks, 24 weeks) in rats; type: in vivo, SD-strain rats (male); settings: for Number of the tongue protrusions / Number of the chewings: 15 min observation from 15 min after dosing, Mean±SE; for Number of the tongue protrusions: control 17.2 ± 5.5; for Number of the chewings: control 213.3 ± 50.5; for suppression of oral dyskinesia: haloperidol decanoate-induced, rats, i.p.
# Experimental: Haloperidol decanoate was intramuscularly injected in the femoral region of each rat of SD-strain rats (male, 6 rats per group) at a dose of 25 mg/kg once for every 4 weeks during the total period of 24 weeks.
# To the control group of rats was intraperitoneally administered only the physiological saline containing 10% Cremophor.
# The numbers of the vacuous chewing movements and the abnormal tongue-protruding movements appearing during the 15 min. period of the observation were counted as indices of oral dyskinesia in the rats.
# Values of Mean±Standard error of the numbers of the abnormal movements as observed were calculated, and the results obtained are shown in Table 3 below.
# phosphodiesterase IV = settings: Type of PDE inhibited: IV; in vitro; cited from earlier work
# SD-strain rats [3] = assay: Test Example 3: oral dyskinesia induced by haloperidol (1.5 mg/kg i.p. daily, 5 weeks) in rats; type: in vivo, SD-strain rats (female)
# Experimental: Haloperidol in the form of a suspension of haloperidol in 0.5% aqueous carboxymethylcellulose was intraperitoneally administrated at a dose of 1.5 mg/kg to each rat of SD-strain rats (female, 7 to 8 rats per group) once a day for consecutive five weeks.
# Ro 20-1724 was formulated into the form of a suspension in which said compound was partially dissolved and partially dispersed in a physiological saline containing 10% Cremophor. On the next day of the final administration of haloperidol, Ro 20-1724 as the suspension was intraperitoneally administered at a dose of 3 mg/kg, […] or 30 mg/kg in the rats under test. To the control group of rats was administered only the physiological saline containing 10% Cremophor.
# The numbers of the vacuous chewing movements and the abnormal tongue-protruding movements appearing during the 15 min. period of the observation were counted as the indices of oral dyskinesia in the rats. The net observation time was calculated by substracting from the total observation time of 15 minutes the amount of time which the rat spent in exploration or grooming. The indices of the oral dyskinesia were expressed as the number of occurrence of the abnormal movements observed in one minute of the net observation time.
# phosphodiesterase I ~ V = settings: Type of PDE inhibited: I ~ V; in vitro; cited from earlier work
# phosphodiesterase I = settings: Type of PDE inhibited: I; in vitro; cited from earlier work
# patients = settings: long-term administration; cited from earlier work
compound,measurement,setting,value
"COc1ccc(C2CNC(=O)C2)cc1OC1CCCC1 (racemic) [Rolipram, (±)-4-[3-(cyclopentyloxy)-4-methoxyphenyl]-2-pyrrolidinone]",Number of the tongue protrusions,SD-strain rats [1]; 0.5 mg/kg i.p.,2.7 ± 1.7
same,Number of the chewings,SD-strain rats [1]; 0.5 mg/kg i.p.,32.2 ± 14.5
same,Number of the tongue protrusions,SD-strain rats [1]; 1.0 mg/kg i.p.,1.5 ± 1.5
same,Number of the chewings,SD-strain rats [1]; 1.0 mg/kg i.p.,8.8 ± 4.0
same,therapeutic effect on symptoms of tardive dyskinesia,"SD-strain rats [1]; haloperidol-induced rat model, i.p. 0.5 and 1.0 mg/kg",suppresses in a dose-dependent manner the symptoms of tardive dyskinesia
same,concentration of cAMP in the brain,cAMP in the brain,can increase the concentration of cAMP in the brain of rats
same,LD50,"acute toxicity in rats; ip, intraperitoneal",~500 mg/kg
same,LD50,acute toxicity in rats; oral,~1200 mg/kg
same,Number of the tongue protrusions,SD-strain rats [2]; 0.1 mg/kg i.p.,6.0 ± 2.2
same,Number of the chewings,SD-strain rats [2]; 0.1 mg/kg i.p.,138.0 ± 38.1
same,Number of the tongue protrusions,SD-strain rats [2]; 0.5 mg/kg i.p.,1.7 ± 1.1
same,Number of the chewings,SD-strain rats [2]; 0.5 mg/kg i.p.,33.8 ± 13.8
same,Number of the tongue protrusions,SD-strain rats [2]; 1.0 mg/kg i.p.,1.3 ± 1.1
same,Number of the chewings,SD-strain rats [2]; 1.0 mg/kg i.p.,42.0 ± 9.5
same,suppression of oral dyskinesia,SD-strain rats [2],suppress in a dose-dependent manner the oral dyskinesia
"CCCCn1c(=O)c2c(ncn2CC(C)=O)n(CCCC)c1=O [Denbufylline, 7-(2-oxopropyl)-1,3-di-n-butylxanthine]",IC50,phosphodiesterase IV,0.3 µM
"CC(C)Cn1c(=O)n(C)c(=O)c2[nH]cnc21 [IBMX, 3-isobutyl-1-methylxanthine]",Number of the tongue protrusions,SD-strain rats [2]; 2.0 mg/kg i.p.,4.8 ± 1.8
same,Number of the chewings,SD-strain rats [2]; 2.0 mg/kg i.p.,135.3 ± 45.0
same,suppression of oral dyskinesia,SD-strain rats [2],had a tendency to suppress the above-mentioned oral dyskinesia
CCCCOc1cc(CC2CNC(=O)N2)ccc1OC (centres unmarked) [Ro 20-1724],Number of the tongue protrusions,"SD-strain rats [3]; 3 mg/kg i.p., number in one minute of net observation time, Mean±SE, n = 8, control 1.90 ± 0.87",0.46 ± 0.17
same,Number of the chewings,"SD-strain rats [3]; 3 mg/kg i.p., number in one minute of net observation time, Mean±SE, n = 8, control 16.2 ± 2.4",11.7 ± 2.1
same,suppression of oral dyskinesia,"SD-strain rats [3]; haloperidol-induced, rats, i.p. 3, 10, 30 mg/kg",suppressed in a dose dependent manner the oral dyskinesia
same,IC50,phosphodiesterase IV,2 µM
"Cn1c(=O)c2[nH]cnc2n(C)c1=O [Theophylline, 3,7-dihydro-1,3-dimethyl-1H-purine-2,6-dione]",IC50,phosphodiesterase I ~ V,~200 µM
"CCOC(=O)C1=C[C@]2(CC)CCCN3CCc4c(n1c1ccccc41)[C@@H]32 [Vinpocetine, eburnamenine 14-carboxylic acid ethyl ester]",IC50,phosphodiesterase I,20 µM
O=C(CCCN1CCC(O)(c2ccc(Cl)cc2)CC1)c1ccc(F)cc1 [haloperidol],adverse reaction,patients,induction of tardive dyskinesia
